Assay results as given in publication PMC6458850, “CXXC5 mediates growth plate senescence and is a target for enhancement of longitudinal bone growth” (Life Science Alliance, 2019).

Target: T1, CXXC5–DVL interaction (Homo sapiens, UniProt O14640)
T1 sequence (O14640 251-340 limits assumed): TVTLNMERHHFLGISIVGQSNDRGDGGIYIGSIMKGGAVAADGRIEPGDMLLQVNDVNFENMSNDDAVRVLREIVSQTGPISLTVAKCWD
Experiment: In vitro CXXC5–DVL binding assay (FITC-tagged PTD-DBMP on DVL PDZ domain)
Settings: compound 30 μM; fluorescent intensity normalized to DMSO-treated control
Description: After the addition of 10 μM FITC-tagged PTD-DBMP to each well, each compound in the chemical library or control (DMSO) was treated to the well at a final concentration of 30 μM. The fluorescence intensity was measured using a Fluorstar Optima microplate reader (BGM Lab Technologies, Ortenberg, Germany). The binding values were calculated as a percent ratio of the fluorescent intensity normalized to the DMSO-treated control.

CXXC5-DVL interaction (%): 7.65%
SMILES: O=C1Nc2ccccc2/C1=C1/Nc2ccccc2/C1=N\O [Compound 12, indirubin-3′-oxime, reference compound]
